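Dose response: 5 concentrations. Exposure: 48 h. Format: 96-well plates. Endpoint: linear interpolation; highest concentration if not reached. GI50 marks 50% less growth. The concentration for full growth arrest is given as TGI.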
What was measured:
Test in all cases: NCI anticancer screen, dose series, 48 h
OVCAR-5 ovarian = test system: OVCAR-5 ovarian
HOP-92 NSCLC = test system: HOP-92 NSCLC
UACC-62 melanoma = test system: UACC-62 melanoma
TK-10 renal = test system: TK-10 renal
U251 CNS = test system: U251 CNS
SNB-19 CNS = test system: SNB-19 CNS
KM20L2 colon = test system: KM20L2 colon
OVCAR-8 ovarian = test system: OVCAR-8 ovarian
SF-295 CNS = test system: SF-295 CNS
XF 498 CNS = test system: XF 498 CNS
LOX IMVI melanoma = test system: LOX IMVI melanoma
SNB-75 CNS = test system: SNB-75 CNS
HT29 colon = test system: HT29 colon
NCI-H23 lung = test system: NCI-H23 lung
LXFL 529 NSCLC = test system: LXFL 529 NSCLC
COLO 205 colon = test system: COLO 205 colon
UO-31 renal = test system: UO-31 renal
RXF 393 renal = test system: RXF 393 renal
SN12C renal = test system: SN12C renal
NCI-H460 lung = test system: NCI-H460 lung
UACC-257 melanoma = test system: UACC-257 melanoma
SK-MEL-2 melanoma = test system: SK-MEL-2 melanoma
DMS 273 small cell lung = test system: DMS 273 small cell lung
OVCAR-3 ovarian = test system: OVCAR-3 ovarian
MALME-3M melanoma = test system: MALME-3M melanoma
RPMI-8226 leukemia = test system: RPMI-8226 leukemia
CCRF-CEM leukemia = test system: CCRF-CEM leukemia
HOP-18 NSCLC = test system: HOP-18 NSCLC
A549 NSCLC = test system: A549 NSCLC
SF-539 CNS = test system: SF-539 CNS
SR leukemia = test system: SR leukemia
HL-60(TB) leukemia = test system: HL-60(TB) leukemia
SNB-78 CNS = test system: SNB-78 CNS
786-0 renal = test system: 786-0 renal
EKVX NSCLC = test system: EKVX NSCLC
MOLT-4 leukemia = test system: MOLT-4 leukemia
HCC-2998 colon = test system: HCC-2998 colon
SK-OV-3 ovarian = test system: SK-OV-3 ovarian
M19-MEL melanoma = test system: M19-MEL melanoma
HCT-116 colon = test system: HCT-116 colon
SW-620 colon = test system: SW-620 colon
HCT-15 colon = test system: HCT-15 colon
HOP-62 NSCLC = test system: HOP-62 NSCLC
IGROV1 ovarian = test system: IGROV1 ovarian
NCI-H226 lung = test system: NCI-H226 lung
ACHN renal = test system: ACHN renal
SK-MEL-28 melanoma = test system: SK-MEL-28 melanoma
SF-268 CNS = test system: SF-268 CNS
NCI-H522 lung = test system: NCI-H522 lung
K-562 leukemia = test system: K-562 leukemia
SK-MEL-5 melanoma = test system: SK-MEL-5 melanoma
DMS 114 small cell lung = test system: DMS 114 small cell lung
KM12 colon = test system: KM12 colon
A498 renal = test system: A498 renal
OVCAR-4 ovarian = test system: OVCAR-4 ovarian
DLD-1 colon = test system: DLD-1 colon
CAKI-1 renal = test system: CAKI-1 renal
M14 melanoma = test system: M14 melanoma
RXF-631 renal = test system: RXF-631 renal

O=C(O)C(CP(=O)(O)O)=C(Cl)Cl
TGI (OVCAR-5 ovarian): > 100 µM
TGI (HOP-92 NSCLC): > 100 µM
TGI (UACC-62 melanoma): > 100 µM
TGI (TK-10 renal): > 100 µM
TGI (U251 CNS): > 100 µM
TGI (SNB-19 CNS): > 100 µM
TGI (KM20L2 colon): > 100 µM
TGI (OVCAR-8 ovarian): > 100 µM
TGI (SF-295 CNS): > 100 µM
TGI (XF 498 CNS): > 100 µM
TGI (LOX IMVI melanoma): > 100 µM
TGI (SNB-75 CNS): > 100 µM
TGI (HT29 colon): > 100 µM
TGI (NCI-H23 lung): > 100 µM
TGI (LXFL 529 NSCLC): > 100 µM
TGI (COLO 205 colon): > 100 µM
TGI (UO-31 renal): > 100 µM
TGI (RXF 393 renal): > 100 µM
TGI (SN12C renal): > 100 µM
TGI (NCI-H460 lung): > 100 µM
TGI (UACC-257 melanoma): > 100 µM
TGI (SK-MEL-2 melanoma): > 100 µM
TGI (DMS 273 small cell lung): > 100 µM
TGI (OVCAR-3 ovarian): > 100 µM
TGI (MALME-3M melanoma): > 100 µM
TGI (RPMI-8226 leukemia): > 100 µM
TGI (CCRF-CEM leukemia): > 100 µM
TGI (HOP-18 NSCLC): > 100 µM
TGI (A549 NSCLC): > 100 µM
TGI (SF-539 CNS): > 100 µM
TGI (SR leukemia): > 100 µM
TGI (HL-60(TB) leukemia): > 100 µM
TGI (SNB-78 CNS): > 100 µM
TGI (786-0 renal): > 100 µM
TGI (EKVX NSCLC): > 100 µM
TGI (MOLT-4 leukemia): > 100 µM
TGI (HCC-2998 colon): > 100 µM
TGI (SK-OV-3 ovarian): > 100 µM
TGI (M19-MEL melanoma): > 100 µM
TGI (HCT-116 colon): > 100 µM
TGI (SW-620 colon): > 100 µM
TGI (HCT-15 colon): > 100 µM
TGI (HOP-62 NSCLC): > 100 µM
TGI (IGROV1 ovarian): > 100 µM
TGI (NCI-H226 lung): > 100 µM
TGI (ACHN renal): > 100 µM
TGI (SK-MEL-28 melanoma): > 100 µM
TGI (SF-268 CNS): > 100 µM

COc1ccc(N2C(=O)C3c4[nH]c5ccccc5c4C4CCCCCCCCCCC4C3C2=O)cc1 (centres undefined)
TGI (NCI-H522 lung): > 49.1 µM
TGI (OVCAR-5 ovarian): > 64.6 µM
TGI (HOP-92 NSCLC): 45.2 µM
TGI (UACC-62 melanoma): > 52.6 µM
TGI (TK-10 renal): > 73.2 µM
TGI (U251 CNS): 22.4 µM
TGI (SNB-19 CNS): 40.8 µM
TGI (KM20L2 colon): 11.5 µM
TGI (K-562 leukemia): > 78.3 µM
TGI (OVCAR-8 ovarian): 9.61 µM
TGI (SK-MEL-5 melanoma): > 59.6 µM
TGI (SF-295 CNS): 39.4 µM
TGI (XF 498 CNS): 28 µM
TGI (LOX IMVI melanoma): > 46.6 µM
TGI (DMS 114 small cell lung): > 47.5 µM
TGI (SNB-75 CNS): 55 µM
TGI (HT29 colon): 18.9 µM
TGI (NCI-H23 lung): > 33.1 µM
TGI (LXFL 529 NSCLC): 23.7 µM
TGI (KM12 colon): > 57.3 µM
TGI (COLO 205 colon): > 40.5 µM
TGI (UO-31 renal): > 59.8 µM
TGI (SN12C renal): 19.9 µM
TGI (NCI-H460 lung): 19.5 µM
TGI (A498 renal): 25.5 µM
TGI (UACC-257 melanoma): > 100 µM
TGI (SK-MEL-2 melanoma): > 100 µM
TGI (DMS 273 small cell lung): 18.6 µM
TGI (OVCAR-3 ovarian): 26.4 µM
TGI (MALME-3M melanoma): > 47.2 µM
TGI (RPMI-8226 leukemia): 43.2 µM
TGI (OVCAR-4 ovarian): 65.8 µM
TGI (CCRF-CEM leukemia): > 43.7 µM
TGI (HOP-18 NSCLC): 6.53 µM
TGI (A549 NSCLC): 23.2 µM
TGI (DLD-1 colon): > 39.9 µM
TGI (SF-539 CNS): > 33.2 µM
TGI (CAKI-1 renal): > 100 µM
TGI (SR leukemia): > 20.3 µM
TGI (M14 melanoma): 27.1 µM
TGI (HL-60(TB) leukemia): 68.2 µM
TGI (786-0 renal): 8.17 µM
TGI (EKVX NSCLC): > 52.8 µM
TGI (MOLT-4 leukemia): 37.4 µM
TGI (HCC-2998 colon): > 100 µM
TGI (SK-OV-3 ovarian): > 57.5 µM
TGI (M19-MEL melanoma): > 52.2 µM
TGI (HCT-116 colon): 15.6 µM
TGI (SW-620 colon): 18.7 µM
TGI (HCT-15 colon): 19.9 µM
TGI (HOP-62 NSCLC): > 55 µM
TGI (IGROV1 ovarian): > 48.7 µM
TGI (NCI-H226 lung): 17.7 µM
TGI (ACHN renal): > 60.3 µM
TGI (SK-MEL-28 melanoma): 29.7 µM
TGI (SF-268 CNS): > 30.5 µM

CCCCCCC(=O)OC[n+]1ccc2c(C)c3[nH]c4ccccc4c3c(C)c2c1
TGI (OVCAR-5 ovarian): 3.6 µM
TGI (HOP-92 NSCLC): 23.9 µM
TGI (UACC-62 melanoma): 16.4 µM
TGI (TK-10 renal): 14.3 µM
TGI (KM20L2 colon): 2.96 µM
TGI (UO-31 renal): 26 µM
TGI (RXF 393 renal): 2.26 µM
TGI (A498 renal): 2.19 µM
TGI (SK-MEL-2 melanoma): 37.8 µM
TGI (RXF-631 renal): > 100 µM
TGI (RPMI-8226 leukemia): 1.69 µM
TGI (CAKI-1 renal): 6.55 µM
TGI (SR leukemia): 8.77 µM
TGI (HL-60(TB) leukemia): > 100 µM
TGI (MOLT-4 leukemia): 12.7 µM
TGI (SK-OV-3 ovarian): 6.31 µM
TGI (HOP-62 NSCLC): 24.7 µM
TGI (IGROV1 ovarian): 30.8 µM
TGI (ACHN renal): 12.4 µM
TGI (SK-MEL-28 melanoma): 3.1 µM
TGI (SF-268 CNS): 2.52 µM

N#C[S-].[Nd+3].c1cnc2c(c1)ccc1cccnc12.c1cnc2c(c1)ccc1cccnc12.c1cnc2c(c1)ccc1cccnc12
TGI (NCI-H522 lung): 18.1 µM
TGI (OVCAR-5 ovarian): 15.3 µM
TGI (HOP-92 NSCLC): 17.2 µM
TGI (UACC-62 melanoma): 5.44 µM
TGI (TK-10 renal): 22 µM
TGI (U251 CNS): 12.4 µM
TGI (SNB-19 CNS): 20.3 µM
GI50 (KM20L2 colon): 1.11 µM
TGI (KM20L2 colon): 15.3 µM
TGI (K-562 leukemia): > 100 µM
TGI (SK-MEL-5 melanoma): 14.1 µM
TGI (SF-295 CNS): 0.991 µM
GI50 (XF 498 CNS): 4 µM
TGI (XF 498 CNS): 9.61 µM
TGI (LOX IMVI melanoma): 13.1 µM
GI50 (DMS 114 small cell lung): 1.59 µM
TGI (DMS 114 small cell lung): 4.67 µM
TGI (SNB-75 CNS): 26.2 µM
TGI (HT29 colon): 20.2 µM
TGI (NCI-H23 lung): 23.3 µM
GI50 (LXFL 529 NSCLC): 1.84 µM
TGI (LXFL 529 NSCLC): 14.8 µM
TGI (KM12 colon): 22.6 µM
TGI (COLO 205 colon): 15.6 µM
TGI (UO-31 renal): 11.2 µM
TGI (SN12C renal): 14.2 µM
TGI (A498 renal): 13.6 µM
TGI (OVCAR-3 ovarian): 16.1 µM
TGI (MALME-3M melanoma): 9.54 µM
TGI (RPMI-8226 leukemia): > 100 µM
TGI (OVCAR-4 ovarian): 14.4 µM
TGI (CCRF-CEM leukemia): 3.85 µM
GI50 (HOP-18 NSCLC): 0.787 µM
TGI (HOP-18 NSCLC): 7.53 µM
TGI (A549 NSCLC): 10.5 µM
TGI (SF-539 CNS): 14 µM
TGI (CAKI-1 renal): 15.1 µM
TGI (SR leukemia): > 100 µM
TGI (M14 melanoma): 6.17 µM
TGI (786-0 renal): 11.8 µM
TGI (EKVX NSCLC): 18.7 µM
TGI (MOLT-4 leukemia): 6.64 µM
TGI (HCC-2998 colon): 20 µM
TGI (SK-OV-3 ovarian): 12.5 µM
GI50 (M19-MEL melanoma): 0.566 µM
TGI (M19-MEL melanoma): 3.63 µM
TGI (HCT-116 colon): 6.43 µM
TGI (SW-620 colon): 24.7 µM
TGI (HOP-62 NSCLC): 20.6 µM
TGI (IGROV1 ovarian): 25.3 µM
TGI (NCI-H226 lung): 5.91 µM
TGI (ACHN renal): 13 µM
TGI (SK-MEL-28 melanoma): 32.1 µM
TGI (SF-268 CNS): 43 µM
